Test system: Crude diglycosidase
Assay: Examination of substrate concentration in the conversion into isoflavone aglycons by diglycosidase using soybean materials;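 further: percent of the isoflavone family total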
Type: biochemical, Penicillium multicolor IAM7153
In short: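 Soybean materials (roasted soy flour, soymilk, defatted soybean, concentrated soy protein) at 2–30% (w/v) in 20 mM acetate pH 4.0 were reacted with crude diglycosidase at 55° C with shaking; enzyme solution added was 1.88 AU/mL. Samples taken at 0, 1, 3 and 6 h were ethanol-extracted and analyzed by HPLC.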

## COc1cc2c(=O)c(-c3ccc(O)cc3)coc2cc1O[C@@H]1O[C@H](CO)[C@@H](O)[C@H](O)[C@H]1O [glycitin]
Defatted soybean, substrate concentration 10%, heat treatment of enzyme no, reaction time 3 h
  Decomposition efficiency: ratio of each glycoside/aglycon within its isoflavone family: not detected
Defatted soybean, substrate concentration 10%, heat treatment of enzyme no, reaction time 6 h
  Decomposition efficiency: ratio of each glycoside/aglycon within its isoflavone family: not detected
Defatted soybean, substrate concentration 10%, heat treatment of enzyme yes, reaction time 6 h
  Decomposition efficiency: ratio of each glycoside/aglycon within its isoflavone family: not detected
Roasted soy flour, substrate concentration 2%, heat treatment of enzyme no, reaction time 0 h
  Decomposition efficiency: ratio of each glycoside/aglycon within its isoflavone family: 50.2%
Roasted soy flour, substrate concentration 2%, heat treatment of enzyme no, reaction time 1 h
  Decomposition efficiency: ratio of each glycoside/aglycon within its isoflavone family: not detected
Roasted soy flour, substrate concentration 2%, heat treatment of enzyme no, reaction time 3 h
  Decomposition efficiency: ratio of each glycoside/aglycon within its isoflavone family: not detected
Roasted soy flour, substrate concentration 2%, heat treatment of enzyme no, reaction time 6 h
  Decomposition efficiency: ratio of each glycoside/aglycon within its isoflavone family: not detected
Roasted soy flour, substrate concentration 2%, heat treatment of enzyme yes, reaction time 6 h
  Decomposition efficiency: ratio of each glycoside/aglycon within its isoflavone family: 53.4%
Roasted soy flour, substrate concentration 5%, heat treatment of enzyme no, reaction time 0 h
  Decomposition efficiency: ratio of each glycoside/aglycon within its isoflavone family: 54.8%
Roasted soy flour, substrate concentration 5%, heat treatment of enzyme no, reaction time 1 h
  Decomposition efficiency: ratio of each glycoside/aglycon within its isoflavone family: not detected
Roasted soy flour, substrate concentration 5%, heat treatment of enzyme no, reaction time 3 h
  Decomposition efficiency: ratio of each glycoside/aglycon within its isoflavone family: not detected
Roasted soy flour, substrate concentration 5%, heat treatment of enzyme no, reaction time 6 h
  Decomposition efficiency: ratio of each glycoside/aglycon within its isoflavone family: not detected
Roasted soy flour, substrate concentration 5%, heat treatment of enzyme yes, reaction time 6 h
  Decomposition efficiency: ratio of each glycoside/aglycon within its isoflavone family: 54.8%
Roasted soy flour, substrate concentration 10%, heat treatment of enzyme no, reaction time 0 h
  Decomposition efficiency: ratio of each glycoside/aglycon within its isoflavone family: 70.3%
Roasted soy flour, substrate concentration 10%, heat treatment of enzyme no, reaction time 1 h
  Decomposition efficiency: ratio of each glycoside/aglycon within its isoflavone family: not detected
Roasted soy flour, substrate concentration 10%, heat treatment of enzyme no, reaction time 3 h
  Decomposition efficiency: ratio of each glycoside/aglycon within its isoflavone family: not detected
Roasted soy flour, substrate concentration 10%, heat treatment of enzyme no, reaction time 6 h
  Decomposition efficiency: ratio of each glycoside/aglycon within its isoflavone family: not detected
Roasted soy flour, substrate concentration 10%, heat treatment of enzyme yes, reaction time 6 h
  Decomposition efficiency: ratio of each glycoside/aglycon within its isoflavone family: 55.0%
Roasted soy flour, substrate concentration 20%, heat treatment of enzyme no, reaction time 0 h
  Decomposition efficiency: ratio of each glycoside/aglycon within its isoflavone family: 59.6%
Roasted soy flour, substrate concentration 20%, heat treatment of enzyme no, reaction time 1 h
  Decomposition efficiency: ratio of each glycoside/aglycon within its isoflavone family: not detected
Roasted soy flour, substrate concentration 20%, heat treatment of enzyme no, reaction time 3 h
  Decomposition efficiency: ratio of each glycoside/aglycon within its isoflavone family: not detected
Roasted soy flour, substrate concentration 20%, heat treatment of enzyme no, reaction time 6 h
  Decomposition efficiency: ratio of each glycoside/aglycon within its isoflavone family: not detected
Roasted soy flour, substrate concentration 20%, heat treatment of enzyme yes, reaction time 6 h
  Decomposition efficiency: ratio of each glycoside/aglycon within its isoflavone family: 56.0%
Roasted soy flour, substrate concentration 30%, heat treatment of enzyme no, reaction time 0 h
  Decomposition efficiency: ratio of each glycoside/aglycon within its isoflavone family: 55.9%
Roasted soy flour, substrate concentration 30%, heat treatment of enzyme no, reaction time 1 h
  Decomposition efficiency: ratio of each glycoside/aglycon within its isoflavone family: not detected
Roasted soy flour, substrate concentration 30%, heat treatment of enzyme no, reaction time 3 h
  Decomposition efficiency: ratio of each glycoside/aglycon within its isoflavone family: not detected
Roasted soy flour, substrate concentration 30%, heat treatment of enzyme no, reaction time 6 h
  Decomposition efficiency: ratio of each glycoside/aglycon within its isoflavone family: not detected
Roasted soy flour, substrate concentration 30%, heat treatment of enzyme yes, reaction time 6 h
  Decomposition efficiency: ratio of each glycoside/aglycon within its isoflavone family: 56.9%
soymilk, substrate concentration 2%, heat treatment of enzyme no, reaction time 0 h
  Decomposition efficiency: ratio of each glycoside/aglycon within its isoflavone family: 71.8%
soymilk, substrate concentration 2%, heat treatment of enzyme no, reaction time 1 h
  Decomposition efficiency: ratio of each glycoside/aglycon within its isoflavone family: not detected
soymilk, substrate concentration 2%, heat treatment of enzyme no, reaction time 3 h
  Decomposition efficiency: ratio of each glycoside/aglycon within its isoflavone family: not detected
soymilk, substrate concentration 2%, heat treatment of enzyme no, reaction time 6 h
  Decomposition efficiency: ratio of each glycoside/aglycon within its isoflavone family: not detected
soymilk, substrate concentration 2%, heat treatment of enzyme yes, reaction time 6 h
  Decomposition efficiency: ratio of each glycoside/aglycon within its isoflavone family: 51.8%
soymilk, substrate concentration 5%, heat treatment of enzyme no, reaction time 0 h
  Decomposition efficiency: ratio of each glycoside/aglycon within its isoflavone family: 49.4%
soymilk, substrate concentration 5%, heat treatment of enzyme no, reaction time 1 h
  Decomposition efficiency: ratio of each glycoside/aglycon within its isoflavone family: not detected
soymilk, substrate concentration 5%, heat treatment of enzyme no, reaction time 3 h
  Decomposition efficiency: ratio of each glycoside/aglycon within its isoflavone family: not detected
soymilk, substrate concentration 5%, heat treatment of enzyme no, reaction time 6 h
  Decomposition efficiency: ratio of each glycoside/aglycon within its isoflavone family: not detected
soymilk, substrate concentration 5%, heat treatment of enzyme yes, reaction time 6 h
  Decomposition efficiency: ratio of each glycoside/aglycon within its isoflavone family: 56.7%
soymilk, substrate concentration 10%, heat treatment of enzyme no, reaction time 0 h
  Decomposition efficiency: ratio of each glycoside/aglycon within its isoflavone family: 52.5%
soymilk, substrate concentration 10%, heat treatment of enzyme no, reaction time 1 h
  Decomposition efficiency: ratio of each glycoside/aglycon within its isoflavone family: not detected
soymilk, substrate concentration 10%, heat treatment of enzyme no, reaction time 3 h
  Decomposition efficiency: ratio of each glycoside/aglycon within its isoflavone family: not detected
soymilk, substrate concentration 10%, heat treatment of enzyme no, reaction time 6 h
  Decomposition efficiency: ratio of each glycoside/aglycon within its isoflavone family: not detected
soymilk, substrate concentration 10%, heat treatment of enzyme yes, reaction time 6 h
  Decomposition efficiency: ratio of each glycoside/aglycon within its isoflavone family: 56.8%
soymilk, substrate concentration 20%, heat treatment of enzyme no, reaction time 0 h
  Decomposition efficiency: ratio of each glycoside/aglycon within its isoflavone family: 52.4%
soymilk, substrate concentration 20%, heat treatment of enzyme no, reaction time 1 h
  Decomposition efficiency: ratio of each glycoside/aglycon within its isoflavone family: not detected
soymilk, substrate concentration 20%, heat treatment of enzyme no, reaction time 3 h
  Decomposition efficiency: ratio of each glycoside/aglycon within its isoflavone family: not detected
soymilk, substrate concentration 20%, heat treatment of enzyme no, reaction time 6 h
  Decomposition efficiency: ratio of each glycoside/aglycon within its isoflavone family: not detected
soymilk, substrate concentration 20%, heat treatment of enzyme yes, reaction time 6 h
  Decomposition efficiency: ratio of each glycoside/aglycon within its isoflavone family: 55.5%
soymilk, substrate concentration 30%, heat treatment of enzyme no, reaction time 0 h
  Decomposition efficiency: ratio of each glycoside/aglycon within its isoflavone family: 50.9%
soymilk, substrate concentration 30%, heat treatment of enzyme no, reaction time 1 h
  Decomposition efficiency: ratio of each glycoside/aglycon within its isoflavone family: not detected
soymilk, substrate concentration 30%, heat treatment of enzyme no, reaction time 3 h
  Decomposition efficiency: ratio of each glycoside/aglycon within its isoflavone family: not detected
soymilk, substrate concentration 30%, heat treatment of enzyme no, reaction time 6 h
  Decomposition efficiency: ratio of each glycoside/aglycon within its isoflavone family: not detected
soymilk, substrate concentration 30%, heat treatment of enzyme yes, reaction time 6 h
  Decomposition efficiency: ratio of each glycoside/aglycon within its isoflavone family: 55.8%
